Assay results from patent US20260250290A1 (BRISTOL-MYERS SQUIBB COMPANY, priority 2023, published 2026).
Where a name gives a salt, the structure may show the parent alone.

Target: T1, full length SGK1 (Homo sapiens, UniProt O00141)
T1 construct: 125 μM full length SGK1 (Life Technologies Part #PR7358A); purchased Life Technologies PR7358A
T1 sequence (O00141 1-431): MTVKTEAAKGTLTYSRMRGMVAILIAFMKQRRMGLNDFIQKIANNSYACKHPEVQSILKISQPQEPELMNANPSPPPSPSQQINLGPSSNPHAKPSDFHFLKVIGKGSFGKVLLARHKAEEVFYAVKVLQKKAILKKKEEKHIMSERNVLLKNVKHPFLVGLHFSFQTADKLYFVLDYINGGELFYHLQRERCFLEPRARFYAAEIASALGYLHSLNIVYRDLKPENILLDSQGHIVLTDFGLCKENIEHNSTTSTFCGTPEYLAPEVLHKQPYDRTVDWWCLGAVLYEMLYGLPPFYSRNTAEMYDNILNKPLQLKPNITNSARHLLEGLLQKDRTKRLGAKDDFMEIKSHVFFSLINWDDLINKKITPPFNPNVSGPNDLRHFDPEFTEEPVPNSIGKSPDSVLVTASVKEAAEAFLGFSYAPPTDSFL
Assay: SGK1 inhibition Assay A (Caliper LabChip electrophoretic separation of fluorescent peptide substrate and phosphorylated product)
Format: biochemical
Details: Assay A; 20 μM ATP, 40 min incubation; read-out: SGK1 IC50

SMILES	IC50 [nM]
N#Cc1ncc(-c2cc(N3CCC[C@@H](NC(=O)c4ccc(Cl)s4)C3)c3c(N)ncnn23)cc1F [Example 530, (R)-N-(1-(4-amino-7-(6-cyano-5-fluoropyridin-3-yl)pyrrolo[2,1-f][1,2,4]triazin-5-yl)piperidin-3-yl)-5-chlorothiophene-2-carboxamide]	11
COC(=O)N1CC=C(c2cc(N3CCC[C@@H](NC(=O)c4ccc(C(F)F)s4)C3)c3c(N)ncnn23)C1 [Example 480, Methyl (R)-3-(4-amino-5-(3-(5-(difluoromethyl)thiophene-2-carboxamido)piperidin-1-yl)pyrrolo[2,1-f][1,2,4]triazin-7-yl)-2,5-dihydro-1H-pyrrole-1-carboxylate]	3
COC(=O)N1CC=C(c2cc(N3CCC[C@@H](NC(=O)c4sc5ccccc5c4OCCN(C)C)C3)c3c(N)ncnn23)C1 [Example 661, Methyl (R)-3-(4-amino-5-(3-(3-(2-(dimethylamino)ethoxy)benzo[b]thiophene-2-carboxamido)piperidin-1-yl)pyrrolo[2,1-f][1,2,4]triazin-7-yl)-2,5-dihydro-1H-pyrrole-1-carboxylate]	13
Nc1ncnn2c(-c3ccnc(F)c3)cc(N3CCC[C@@H](NC(=O)c4cc(Cl)sc4Cl)C3)c12 [Example 157, (R)-N-(1-(4-amino-7-(2-fluoropyridin-4-yl)pyrrolo[2,1-f][1,2,4]triazin-5-yl)piperidin-3-yl)-2,5-dichlorothiophene-3-carboxamide]	15
Cc1nc(OCCN(C)C)c(C(=O)N[C@@H]2CCCN(c3cc(-c4ccc(=O)n(CC(C)C)c4)n4ncnc(N)c34)C2)s1 [Example 355, (R)-N-(1-(4-amino-7-(1-isobutyl-6-oxo-1,6-dihydropyridin-3-yl)pyrrolo[2,1-f][1,2,4]triazin-5-yl)piperidin-3-yl)-4-(2-(dimethylamino)ethoxy)-2-methylthiazole-5-carboxamide]	47
CC(=O)N1CC=C(c2cc(N3CCC[C@@H](NC(=O)c4cc5cnccc5[nH]4)C3)c3c(N)ncnn23)C1 [Example 490, (R)-N-(1-(7-(1-acetyl-2,5-dihydro-1H-pyrrol-3-yl)-4-aminopyrrolo[2,1-f][1,2,4]triazin-5-yl)piperidin-3-yl)-1H-pyrrolo[3,2-c]pyridine-2-carboxamide]	24
CC(=O)N1CC=C(c2cc(N3CCC[C@@H](NC(=O)c4cc(C)cc(N5CCN(C)CC5)n4)C3)c3c(N)ncnn23)C1 [Example 732, (R)-N-(1-(7-(1-acetyl-2,5-dihydro-1H-pyrrol-3-yl)-4-aminopyrrolo[2,1-f][1,2,4]triazin-5-yl)piperidin-3-yl)-4-methyl-6-(4-methylpiperazin-1-yl)picolinamide]	25
Nc1ncnn2c(-c3ccc(OC(F)F)nc3)cc(N3CCC[C@@H](NC(=O)c4ccc(Cl)s4)C3)c12 [Example 538, (R)-N-(1-(4-amino-7-(6-(difluoromethoxy)pyridin-3-yl)pyrrolo[2,1-f][1,2,4]triazin-5-yl)piperidin-3-yl)-5-chlorothiophene-2-carboxamide]	20
CC(=O)N1CC=C(c2cc(N3CCC[C@@H](NC(=O)c4cccc(N5CC6(C5)CN(C(C)C)C6)n4)C3)c3c(N)ncnn23)C1 [Example 781, (R)-N-(1-(7-(1-acetyl-2,5-dihydro-1H-pyrrol-3-yl)-4-aminopyrrolo[2,1-f][1,2,4]triazin-5-yl)piperidin-3-yl)-6-(6-isopropyl-2,6-diazaspiro[3.3]heptan-2-yl)picolinamide]	5
COC(=O)C12CC(C(=O)N[C@@H]3CCCN(c4cc(C5=CCN(C(C)=O)C5)n5ncnc(N)c45)C3)(C1)C2 [Example 478, Methyl(R)-3-((1-(7-(1-acetyl-2,5-dihydro-1H-pyrrol-3-yl)-4-aminopyrrolo[2,1-f][1,2,4]triazin-5-yl)piperidin-3-yl)carbamoyl)bicyclo[1.1.1]pentane-1-carboxylate]	771
Cc1nnc2ccc(-c3cc(N4CCC[C@@H](NC(=O)c5ccc(Cl)s5)C4)c4c(N)ncnn34)cn12 [Example 254]	23
CC(=O)N1CC=C(c2cc(N3CCC[C@@H](NC(=O)c4sc(Cl)cc4OC4CCNCC4F)C3)c3c(N)ncnn23)C1 (single isomer, unassigned) [Example 600D]	19
Cc1cc(N2CCN(C)CC2)c(C(=O)N[C@@H]2CCCN(c3cc(-c4ccnc(F)c4)n4ncnc(N)c34)C2)s1 [Example 199, (R)—N-(1-(4-amino-7-(2-fluoropyridin-4-yl)pyrrolo[2,1-f][1,2,4]triazin-5-yl)piperidin-3-yl)-5-methyl-3-(4-methylpiperazin-1-yl)thiophene-2-carboxamide, 3 TFA]	2
CC(C)(O)CCOc1cc(Cl)sc1C(=O)N[C@@H]1CCCN(c2cc(-c3ccnc(F)c3)n3ncnc(N)c23)C1 [Example 166, (R)—N-(1-(4-amino-7-(2-fluoropyridin-4-yl)pyrrolo[2,1-f][1,2,4]triazin-5-yl)piperidin-3-yl)-5-chloro-3-(3-hydroxy-3-methylbutoxy)thiophene-2-carboxamide]	3

The remaining compounds from weak to strong by IC50, led by results:

IC50 [nM]	SMILES
115	CC(=O)N1CC=C(c2cc(N3CCC[C@@H](NC(=O)c4ccn(C)n4)C3)c3c(N)ncnn23)C1 [Example 738, (R)-N-(1-(7-(1-acetyl-2,5-dihydro-1H-pyrrol-3-yl)-4-aminopyrrolo[2,1-f][1,2,4]triazin-5-yl)piperidin-3-yl)-1-methyl-1H-pyrazole-3-carboxamide]
65	CC(=O)N1CC=C(c2cc(N3CCC[C@@H](NC(=O)c4cccc(-n5cnnc5)c4)C3)c3c(N)ncnn23)C1 [Example 257, (R)—N-(1-(7-(1-acetyl-2,5-dihydro-1H-pyrrol-3-yl)-4-aminopyrrolo[2,1-f][1,2,4]triazin-5-yl)piperidin-3-yl)-3-(4H-1,2,4-triazol-4-yl)benzamide, TFA]
57	CC(C)(C)OC(=O)N1CCC(Oc2c(C(=O)N[C@@H]3CCCN(c4cc(-c5ccc(C#N)nc5)n5ncnc(N)c45)C3)sc3ccccc23)CC1 [Example 654, tert-butyl (R)-4-((2-((1-(4-amino-7-(6-cyanopyridin-3-yl)pyrrolo[2,1-f][1,2,4]triazin-5-yl)piperidin-3-yl)carbamoyl)benzo[b]thiophen-3-yl)oxy)piperidine-1-carboxylate]
26	Cn1cc(-c2cc(N3CCC[C@@H](NC(=O)c4ccc(Cl)s4)C3)c3c(N)ncnn23)cn1 [Example 216, (R)-N-(1-(4-amino-7-(1-methyl-1H-pyrazol-4-yl)pyrrolo[2,1-f][1,2,4]triazin-5-yl)piperidin-3-yl)-5-chlorothiophene-2-carboxamide, TFA]
24	CCN(CC)CCOc1cc(C(F)F)sc1C(=O)N[C@@H]1CCCN(c2cc(C3=CCN(C(C)=O)C3)n3ncnc(N)c23)C1 [Example 409, (R)-N-(1-(7-(1-acetyl-2,5-dihydro-1H-pyrrol-3-yl)-4-aminopyrrolo[2,1-f][1,2,4]triazin-5-yl)piperidin-3-yl)-3-(2-(diethylamino)ethoxy)-5-(difluoromethyl) thiophene-2-carboxamide]
22	CC(=O)N1CC=C(c2cc(N3CCC[C@@H](NC(=O)c4cc(N5CCOCC5)c(C)s4)C3)c3c(N)ncnn23)C1 [Example 271, (R)—N-(1-(7-(1-acetyl-2,5-dihydro-1H-pyrrol-3-yl)-4-aminopyrrolo[2,1-f][1,2,4]triazin-5-yl)piperidin-3-yl)-5-methyl-4-morpholinothiophene-2-carboxamide]
10	COC(=O)N1CC=C(c2cc(N3CCC[C@@H](NC(=O)c4sc(C(F)F)cc4OCCN(C)C)C3)c3c(N)ncnn23)C1 [Example 303, Methyl (R)-3-(4-amino-5-(3-(5-(difluoromethyl)-3-(2-(dimethylamino)ethoxy)thiophene-2-carboxamido)piperidin-1 - yl)pyrrolo [2,1-f][1,2,4]triazin-7-yl)-2,5-dihydro-1H-pyrrole-1-carboxylate]
8	CC(=O)N1CC=C(c2cc(N3CCCC(NC(=O)c4sc(Cl)cc4OCC4CCNC4)C3)c3c(N)ncnn23)C1 (single isomer, unassigned) [Example 638]
2	COC(=O)N1CC=C(c2cc(N3CCC[C@@H](NC(=O)c4sc(Cl)cc4OC4CCN(CCO)CC4)C3)c3c(N)ncnn23)C1 [Example 564, methyl (R)-3-(4-amino-5-(3-(5-chloro-3-((1-(2-hydroxyethyl)piperidin-4-yl)oxy)thiophene-2-carboxamido)piperidin-1-yl)pyrrolo[2,1-f][1,2,4]triazin-7-yl)-2,5-dihydro-1H-pyrrole-1-carboxylate]
1	CN(C)CCOc1cc(Cl)sc1C(=O)N[C@@H]1CCCN(c2cc(-c3ccc(C#N)nc3)n3ncnc(N)c23)C1 [Example 278, (R)-N-(1-(4-amino-7-(6-cyanopyridin-3-yl)pyrrolo[2,1-f][1,2,4]triazin-5-yl)piperidin-3-yl)-5-chloro-3-(2-(dimethylamino)ethoxy) thiophene-2-carboxamide]
1	N#Cc1ccc(-c2cc(N3CCC[C@@H](NC(=O)c4ccc(Cl)s4)C3)c3c(N)ncnn23)cc1F [Example 243, (R)-N-(1-(4-amino-7-(4-cyano-3-fluorophenyl)pyrrolo[2,1-f][1,2,4]triazin-5-yl)piperidin-3-yl)-5-chlorothiophene-2-carboxamide, TFA]
